One series addresses DP receptor (Homo sapiens (Human), UniProt Q13258). Briefly: DP inhibitory activity in human platelets (PGD2-induced cAMP increase in platelet rich plasma, HTRF). The class given is cell-based. As to conditions: IC50 of PGD2 (300 nM)-induced cAMP increase, read-out: PRP. An outline of the steps:
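Human citrated platelet-rich plasma pretreated 5 min with IBMX ([…]), then compound for 10 min before 300 nM PGD2; stopped after 2 min with HCl and lysed. cAMP measured by HTRF; IC50 from inhibition of PGD2-induced cAMP increase.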

Series [1] addresses T1, CRTH2 (Homo sapiens (Human), UniProt Q9Y5Y4). The series can be described thus: CRTH2 inhibitory activity in CRTH2-expressing cells (PGD2-induced intracellular calcium increase, K562). Type of series: cell-based. As to conditions: 200 nM PGD2, read-out: IC50, inhibition of intracellular calcium concentration increase induced by PGD2. The protocol: CRTH2 inhibitory activities of compounds were determined as inhibition activity of intra-cellular calcium concentration increase induced by PGD2 in CRTH2-expressing cells.
CRTH2-expressing K562 cells were suspended at concentration of 2×10^6 cells/ml in buffer (10 mM HEPES, pH 7.4, 0.1% Bovine serum albumin). Cells were incubated with […] (4 μM) for 30 min at room temperature. Cells were washed, resuspended and mixed with various concentration of compounds of the present invention. After 2 min, cells were treated with 200 nM of PGD2. Then intracellular calcium concentration was measured using intracellular ion analyzer (FDSS3000). Inhibition ratio was defined by comparing intracellular calcium concentration increase with and without compound, and IC50 for each compound was calculated from inhibitory curve.
(A change in cytosolic calcium serves as a functional read-out for many receptors and channels.)

For series [2], the target named is T1, CRTH2. Briefly: CRTH2 inhibitory activity in human eosinophil (PGD2 induced eosinophil shape change). Type of series: cell-based. As to conditions: human peripheral blood, 40 nM PGD2, forward scatter; read-out: IC50, inhibition of PGD2 induced eosinophil shape change. The protocol:
CRTH2 inhibitory activity in human eosinophil was determined as inhibitory activity of PGD2 induced eosinophil shape change.
Human peripheral blood was mixed with compounds of the present invention at 37° C. After 5 min, the blood was treated with 40 nM of PGD2 for 10 min and fixed. The blood was hemolyzed and centrifuged. Blood cells were resuspended in PBS and measured forward scatter (FS) using flow cytometer (FACSAria). Inhibition ratio was defined by comparing FS with and without compound, and IC50 for each compound was calculated from inhibitory curve.

A further series addresses CYP1A2 (Homo sapiens (Human), UniProt P05177). Briefly: CYP inhibition test, 7-ethoxyresorufin O-deethylation. Type of series: in vitro ADME. As to conditions: pooled human hepatic microsome, 0.5 μmol/L ethoxyresorufin. From the text:
(§1) Using commercially available pooled human hepatic microsome, and employing, as markers, 7-ethoxyresorufin O-deethylation (CYP1A2), tolbutamide methyl-hydroxylation (CYP2C9), mephenyloin 4′-hydroxylation (CYP2C19), dextromethorphan O-demethylation (CYP2D6), and terfenedine hydroxylation as typical substrate metabolism reactions of human main five CYP enzyme forms (CYP1A2, 2C9, 2C19, 2D6, 3A4), an inhibitory degree of each metabolite production amount by a compound of the present compound was assessed.
(§2) The reaction conditions were as follows: substrate, 0.5 μmol/L ethoxyresorufin (CYP1A2), 100 μmol/L tolbutamide (CYP2C9), 50 μmol/L S-mephenyloin (CYP2C19), 5 μmol/L dextromethorphan (CYP2D6), 1 μmol/L terfenedine (CYP3A4); reaction time, 15 minutes; reaction temperature, 37° C.; enzyme, pooled human hepatic microsome 0.2 mg protein/mL; concentration of a compound of the present invention, 1, 5, 10, 20 μmol/L (four points).
(§3) Each five kinds of substrates, human hepatic microsome, or a compound of the present invention in 50 mM Hepes buffer as a reaction mixture was added to a 96-well plate at the composition as described above, NADPH, as a cofactor was added to initiate metabolism reactions as markers and. After the incubation at 37° C. for 15 minutes, a methanol/acetonitrile=1/1 (v/v) solution was added to stop the reaction. After the centrifugation at 3000 rpm for 15 minutes, resorufin (CYP1A2 metabolite) in the supernatant was quantified by a fluorescent multilabel counter and tolbutamide hydroxide (CYP2C9 metabolite), mephenyloin 4′ hydroxide (CYP2C19 metabolite), dextrorphan (CYP2D6 metabolite), and terfenadine alcohol (CYP3A4 metabolite) were quantified by LC/MS/MS.

A further series addresses CYP2C9 (Homo sapiens (Human), UniProt P11712). Briefly: CYP inhibition test, tolbutamide methyl-hydroxylation. Type of series: in vitro ADME. To be noted: pooled human hepatic microsome, 100 μmol/L tolbutamide.
Source text: as §1, §2, §3

In a further series the target is CYP2C19 (Homo sapiens (Human), UniProt P33261). Briefly: CYP inhibition test, mephenyloin 4'-hydroxylation. The class given is in vitro ADME. As to conditions: pooled human hepatic microsome, 50 μmol/L S-mephenyloin.
Sequence of CYP2C19 (P33261 whole entry): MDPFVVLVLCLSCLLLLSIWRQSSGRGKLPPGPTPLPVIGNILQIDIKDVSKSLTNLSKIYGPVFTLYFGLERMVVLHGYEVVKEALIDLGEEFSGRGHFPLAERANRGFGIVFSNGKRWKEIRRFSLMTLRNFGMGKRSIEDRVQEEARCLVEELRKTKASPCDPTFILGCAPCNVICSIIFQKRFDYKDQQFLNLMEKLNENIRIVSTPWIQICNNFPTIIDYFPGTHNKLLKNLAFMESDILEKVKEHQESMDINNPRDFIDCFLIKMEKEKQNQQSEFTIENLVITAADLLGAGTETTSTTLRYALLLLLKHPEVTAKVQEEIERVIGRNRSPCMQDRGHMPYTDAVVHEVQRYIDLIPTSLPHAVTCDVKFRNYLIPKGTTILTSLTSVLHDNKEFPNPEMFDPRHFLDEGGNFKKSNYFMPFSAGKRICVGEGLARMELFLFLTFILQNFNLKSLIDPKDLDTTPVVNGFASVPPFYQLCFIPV
Source text: as §1, §2, §3

Series [3] in a line: Metabolism stability test. The class given is in vitro ADME. To be noted: human liver microsomes, 30 minutes, 37° C., NADPH, 0.5 μmol/L of the compound. The protocol: Using a commercially available pooled human hepatic microsomes, a compound of the present invention was reacted for a constant time, a remaining rate was calculated by comparing a reacted sample and an unreacted sample, thereby, a degree of metabolism in liver was assessed.
A reaction was performed (oxidative reaction) at 37° C. for 0 minute or 30 minutes in the presence of 1 mmol/L NADPH in 0.2 mL of a buffer (50 mmol/L Tris-HCl pH 7.4, 150 mmol/L potassium chloride, 10 mmol/L magnesium chloride) containing 0.5 mg protein/mL of human liver microsomes. After the reaction, 50 μL of the reaction mixture was added to 100 μL of a methanol/acetonitrile=1/1 (v/v), mixed and centrifuged at 3000 rpm for 15 minutes. The compound of the present invention in the supernatant was quantified by LC/MS/MS, and a remaining amount of the compound of the present invention after the reaction was calculated, letting a compound amount at 0 minute reaction time to be 100%. Glucuronidation reaction was in the presence of 5 mM UDP-glucuronic acid in place of NADPH, followed by similar operations.

T1 sequence (Q9Y5Y4 whole entry): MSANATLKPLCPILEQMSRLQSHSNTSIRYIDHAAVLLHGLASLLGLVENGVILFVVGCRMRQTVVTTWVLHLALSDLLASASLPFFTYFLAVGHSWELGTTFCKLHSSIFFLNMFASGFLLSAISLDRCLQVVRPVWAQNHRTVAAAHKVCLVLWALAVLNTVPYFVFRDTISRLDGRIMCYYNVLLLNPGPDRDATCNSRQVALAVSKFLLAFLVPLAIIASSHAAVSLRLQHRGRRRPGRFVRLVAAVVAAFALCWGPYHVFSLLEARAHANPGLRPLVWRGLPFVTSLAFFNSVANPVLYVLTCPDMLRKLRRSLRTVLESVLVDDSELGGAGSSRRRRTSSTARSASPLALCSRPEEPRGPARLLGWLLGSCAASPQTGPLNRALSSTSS
Sequence of CYP1A2 (P05177 whole entry): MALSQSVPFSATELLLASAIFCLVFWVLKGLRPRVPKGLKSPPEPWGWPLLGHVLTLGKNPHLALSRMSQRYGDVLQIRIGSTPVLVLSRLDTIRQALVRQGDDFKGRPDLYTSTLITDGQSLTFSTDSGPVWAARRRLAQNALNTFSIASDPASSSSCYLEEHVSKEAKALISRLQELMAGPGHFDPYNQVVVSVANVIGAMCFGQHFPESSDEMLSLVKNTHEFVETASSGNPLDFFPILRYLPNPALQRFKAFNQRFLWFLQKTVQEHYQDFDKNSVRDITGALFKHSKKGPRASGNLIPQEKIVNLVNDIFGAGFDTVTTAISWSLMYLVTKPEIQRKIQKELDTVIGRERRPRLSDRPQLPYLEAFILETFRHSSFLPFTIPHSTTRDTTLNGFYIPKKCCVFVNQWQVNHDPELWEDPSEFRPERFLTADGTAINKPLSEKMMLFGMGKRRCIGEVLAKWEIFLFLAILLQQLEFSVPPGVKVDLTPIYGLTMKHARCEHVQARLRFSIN
Sequence of CYP2C9 (P11712 whole entry): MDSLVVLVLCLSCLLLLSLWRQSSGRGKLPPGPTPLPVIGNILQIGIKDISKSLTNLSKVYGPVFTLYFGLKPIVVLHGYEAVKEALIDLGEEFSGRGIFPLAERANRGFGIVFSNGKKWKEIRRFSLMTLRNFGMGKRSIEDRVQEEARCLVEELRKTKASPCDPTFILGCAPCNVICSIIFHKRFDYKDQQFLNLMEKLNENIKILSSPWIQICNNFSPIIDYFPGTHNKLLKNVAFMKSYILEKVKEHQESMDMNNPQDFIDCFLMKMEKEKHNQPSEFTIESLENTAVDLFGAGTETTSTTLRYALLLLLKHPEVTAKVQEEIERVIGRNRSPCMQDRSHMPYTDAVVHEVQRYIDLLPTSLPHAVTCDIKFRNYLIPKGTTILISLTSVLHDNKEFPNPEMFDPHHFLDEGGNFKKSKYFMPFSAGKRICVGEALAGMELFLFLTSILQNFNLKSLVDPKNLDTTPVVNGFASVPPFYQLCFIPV
Sequence of DP receptor (Q13258 whole entry): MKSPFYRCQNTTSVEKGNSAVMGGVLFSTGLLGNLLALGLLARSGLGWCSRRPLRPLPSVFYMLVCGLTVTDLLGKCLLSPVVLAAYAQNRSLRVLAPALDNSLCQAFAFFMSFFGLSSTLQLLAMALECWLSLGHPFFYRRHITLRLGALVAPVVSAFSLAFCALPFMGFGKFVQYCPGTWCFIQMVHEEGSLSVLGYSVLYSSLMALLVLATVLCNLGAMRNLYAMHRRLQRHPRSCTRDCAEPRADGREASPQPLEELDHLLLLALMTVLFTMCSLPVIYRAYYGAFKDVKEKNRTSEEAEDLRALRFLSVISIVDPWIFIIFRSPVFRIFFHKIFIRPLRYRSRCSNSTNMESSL

Take `CC(C)Oc1ccc(S(=O)(=O)N2C[C@H](n3nc(CC(=O)O)c4ccc(F)cc43)C[C@H]2C#N)cc1` [Compound I-7]: the IC50 on DP receptor was 0.026 µM; on CRTH2 [1], 0.033 µM; at CRTH2 [2], 0.034 µM; against CYP1A2 it was greater than 20 µM; at CYP2C9, greater than 20 µM; against CYP2C19 it was greater than 20 µM.
`CC(C)Oc1ccc(S(=O)(=O)N2C[C@@H](C)[C@@H](n3nc(CC(=O)O)c4ccc(F)cc43)C2)cc1` [Compound I-37]: the IC50 was 0.071 µM at DP receptor; 0.05 µM on CRTH2 [1]; 0.015 µM at CRTH2 [2]; greater than 20 µM against CYP1A2; greater than 20 µM against CYP2C9; greater than 20 µM against CYP2C19.
With `CC(C)Oc1ccc(S(=O)(=O)N2C[C@@H](C)[C@@H](n3nc(CC(=O)O)c4ccc(F)cc43)C2)c(F)c1` [Compound I-52], the IC50 on CRTH2 [1] was 0.14 µM; against CYP1A2 it was greater than 20 µM; at CYP2C9, greater than 20 µM; at CYP2C19, greater than 20 µM. Also, in series [3], the “remaining rate after reaction (result heading prints '% inhibition')” value came to 97.2%.
Take `CC(C)Oc1ccc(S(=O)(=O)N2C[C@@H](C)[C@@H](n3nc(CC(=O)O)c4ccc(F)cc43)C2)cn1` [Compound I-57]: the IC50 was 0.21 µM at CRTH2 [1], greater than 20 µM against CYP1A2, greater than 20 µM at CYP2C9 and greater than 20 µM against CYP2C19. Moreover, in series [3], the “remaining rate after reaction (result heading prints '% inhibition')” value stood at 86.9%.
`CCOc1ccc(S(=O)(=O)N2C[C@@H](C)[C@@H](n3nc(CC(=O)O)c4ccccc43)C2)cn1` [Compound I-96]: the IC50 on DP receptor is 0.068 µM; on CRTH2 [1], 0.23 µM; at CRTH2 [2] it was 0.27 µM; at CYP1A2, greater than 20 µM; on CYP2C9, greater than 20 µM; at CYP2C19, greater than 20 µM. For the same molecule, the “remaining rate after reaction (result heading prints '% inhibition')” value in series [3] is 99.3%.

The values above are taken from US9725442B2, “Heterocyclic derivative having PGD2 receptor antagonist activity” (Shionogi & Co., Ltd., priority 2011, dated 2017).
